Laboratory results from patent publication US11365215B2, “Method for preventing, improving, or treating inflammatory bowel disease” (Research & Business Foundation Sungkyunkwan University, priority 2015, dated 2022).
Peptide text beside a SMILES is read from it.

Legend:
NF-κB = experiment: 5×NF-κB-Luc reporter luciferase assay in LPS-treated RAW 264.7 cells; assay type: cell-based; details: 100 nM for 30 minutes, LPS 100 ng/ml two hours
Method: Specifically, 5×NF-κB-Luc reporter plasmid was transfected into RAW 264.7 cells using Effectene (Qiagen, USA). The transfected cells were pretreated with 100 nM of compound 1.1 (SEQ ID NO: 2) for 30 minutes, and further treated with LPS (100 ng/ml) for two hours, and luciferase activity in the cells was measured (FIG. 4 depicts a graph showing relative inhibition activities of compound 1.1 (SEQ ID NO: 2) and compound 1.2 to NF-κB activation). When the cells were treated with compound 1.1 (SEQ ID NO: 2) and compound 1.2 according to the present invention, activation of NF-κB, which was induced by LPS, was inhibited (FIG. 4).
In addition, 5×NF-κB-Luc reporter plasmid was transfected into RAW 264.7 macrophage cells and treated with compounds of the present invention, as described above. After 24 hours of the transfection, the cells were pretreated with DMSO (control), compound 1.1 (SEQ ID NO: 2), reference compound 1 (SEQ ID NO: 16) (compound where palmitic acid is removed from compound 1.1 (SEQ ID NO: 2)), and smaducin-6 were treated at various concentrations of 100 pM, 1 nM, and 100 nM for 30 minutes, and then the cells were treated with 100 ng/ml of LPS for two hours.
(§1) Specifically, 5×NF-κB-Luc reporter plasmid, SBE-Luc reporter plasmid, and BRE-Luc reporter plasmid were individually transfected into Raw 264.7 macrophage cells. After 24 hours, the cells transfected with the NF-κB-Luc reporter plasmid were treated with 100 ng/mL of LPS, the cells transfected with the SBE-Luc reporter plasmid were treated with 5 ng/mL of TFG-β1, and the cells transfected with the BRE-Luc reporter plasmid were treated with 100 ng/mL of BMP6 for two hours.
As described in Example 2.3, 5×NF-κB-Luc reporter plasmid was transfected into RAW 246.7 macrophage cells. After 24 hours, the cells transfected with NF-κB-Luc reporter plasmid were pretreated with compound 1.1 (SEQ ID NO: 2) (100 nM), interleukin-1-receptor-associated-kinase-1/4 inhibitor (IRAK1/4) inhibitor (25 μM, CAS 509093-47-4), and smaducin-6 (100 nM) for 30 minutes, and then further treated with LPS (100 ng/ml) for 2 hours. Subsequently, luciferase activities in the cells were measured.

BRE (BMP6 signaling) = experiment: BRE-Luc reporter assay in Raw 264.7 cells treated with BMP6; assay type: cell-based; details: 100 ng/mL BMP6 two hours
Method: as §1

[1] = test system: inflammatory signaling pathway protein complex mediated by MyD88 or RIP1; experiment: Immunoprecipitation of inflammatory signaling pathway protein complex in LPS-treated RAW264.7 cells; assay type: cell-based; details: pretreated, then LPS
From the text: Specifically, using antibodies corresponding to proteins which relate to the formation of Toll-like receptors (TLRs) signaling pathway protein complex (for example, IRAK1, TRAF6, MyD88, RIP1 and Pellino-1), disruption of the formation of inflammatory signaling pathway protein complexes was affirmed by immunoprecipitation. As reference control, a relative amount of expression of β-actin from the total cell lysate was compared and presented using Western blot.
RAW264.7 macrophage cells were individually retreated with compound 1.1 (SEQ ID NO: 2) and compound 1.2, and smaducin-6, and further treated with LPS. These RAW264.7 macrophage cells were collected, lysed in a lysis butter (PBS containing 0.5% Triton X-100, 20 mM HEPES (pH 7.4), 150 mM NaCl, 12.5 mM β-glycerol phosphate, 1.5 mM MgCl2, 10 mM NaF, 2 mM DTT, 1 mM Na3O4V, 2 mM EGTA, and 1 mM Protease Inhibitor (PMSF)), and centrifuged at 13000 rpm for 10 minutes. For immunoprecipitation assays, the supernatant was incubated at 4° C. for 12 hours, with protein-A agarose beads and the antibodies corresponding to the above proteins, and the beads were subsequently washed three times with the lysis buffer. The immunoprecipitated substances were dissociated from the beads with addition of 2× sample buffer, and were boiled. The prepared samples were loaded on SDS-polyacrylamide gel (FIG. 7).

[2] = molecular target: T1, inflammatory signaling pathway complex mediated by MyD88 and RIP1 (Mus musculus, UniProt P22366+Q60855); experiment: Immunoprecipitation/immunoblot of inflammatory signaling pathway complex in LPS-treated BMDM cells; assay type: cell-based; details: 100 pM, 1 nM, 100 nM, then 100 ng/mL LPS
T1 construct: endogenous in cells; host or cells: bone-marrow-derived macrophage (BMDM) cells
T1 sequence (P22366 whole entry): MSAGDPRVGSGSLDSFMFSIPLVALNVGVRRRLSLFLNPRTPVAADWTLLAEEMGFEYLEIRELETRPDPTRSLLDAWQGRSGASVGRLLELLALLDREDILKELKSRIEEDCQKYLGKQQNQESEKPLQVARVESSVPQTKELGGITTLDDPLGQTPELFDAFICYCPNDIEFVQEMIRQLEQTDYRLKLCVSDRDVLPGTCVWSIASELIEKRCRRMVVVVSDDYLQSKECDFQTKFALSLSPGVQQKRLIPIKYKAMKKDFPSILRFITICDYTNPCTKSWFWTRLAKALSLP
T1 sequence (Q60855 whole entry): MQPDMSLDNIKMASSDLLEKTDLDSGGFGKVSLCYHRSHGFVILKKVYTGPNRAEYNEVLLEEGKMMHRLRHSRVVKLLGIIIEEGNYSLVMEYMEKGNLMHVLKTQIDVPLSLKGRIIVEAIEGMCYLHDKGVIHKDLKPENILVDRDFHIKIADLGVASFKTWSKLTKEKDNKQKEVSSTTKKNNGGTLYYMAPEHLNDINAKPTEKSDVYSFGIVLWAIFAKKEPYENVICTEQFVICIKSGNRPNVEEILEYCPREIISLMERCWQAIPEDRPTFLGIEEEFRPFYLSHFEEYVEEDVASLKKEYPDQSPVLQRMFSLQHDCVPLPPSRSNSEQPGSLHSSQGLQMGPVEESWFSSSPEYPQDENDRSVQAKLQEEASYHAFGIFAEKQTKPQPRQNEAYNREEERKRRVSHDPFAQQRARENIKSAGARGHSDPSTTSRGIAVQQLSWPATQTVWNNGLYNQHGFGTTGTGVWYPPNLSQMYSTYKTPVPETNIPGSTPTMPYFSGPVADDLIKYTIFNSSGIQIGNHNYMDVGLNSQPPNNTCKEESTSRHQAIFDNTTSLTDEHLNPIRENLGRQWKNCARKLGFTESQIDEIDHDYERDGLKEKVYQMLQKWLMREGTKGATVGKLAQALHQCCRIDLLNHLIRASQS
Method: Bone-marrow-derived macrophage (BMDM) cells were individually pretreated with compound 1.1 (SEQ ID NO: 2), reference compound 1 (SEQ ID NO: 16), and smaducin-6 at various concentrations of 100 pM, 1 nM, and 100 nM, and then further treated with 100 ng/mL of LPS.

[3] = test system: DSS-induced chronic colitis; experiment: Disease activity index in DSS-induced chronic colitis model; assay type: in vivo, Mice (C57BL/6); details: mice
Method: Mice (7-8 weeks, female, C57BL/6) were fed 2% DSS polymer (MW of about 50000 Da) in drinking water for 5-7 days, and colitis was induced every 2 to 15 days. Compound 1.1 (SEQ ID NO: 2) was then administered orally to the mice, which had induced chronic colitis by DSS, in an amount of 50 mg/kg, 100 mg/kg, 200 mg/kg and 400 mg/kg, respectively, from the third day after feeding DDS, daily, for 11 days. Body weights, diarrhea and hemafecia of the mice were checked daily and the disease activity indexes were measured (FIG. 10).

AP-1 = experiment: AP-1-Luc reporter luciferase assay in LPS-treated RAW 246.7 cells; assay type: cell-based; details: 100 nM for 30 minutes, LPS 100 ng/ml 2 hours
Method: RAW 246.7 macrophage cells were transfected with AP-1-Luc reporter plasmid as described in Example 2.3. After 24 hours, the transfected cells with AP-1-Luc reporter plasmid were pretreated with compound 1.1 (SEQ ID NO: 2) (100 nM), IRAK1/4 inhibitor (25 μM), and smaducin-6 (100 nM) for 30 minutes, and then further treated with LPS (100 ng/ml) for 2 hours.

SMILES: CCCCCCCCCCCCCCCC(=O)N1CCC[C@H]1C(=O)N1CCC[C@H]1C(=O)NCC(=O)N[C@@H](Cc1ccc(O)cc1)C(=O)O [compound 1.1, (S)-3-(4-hydroxyphenyl)-2-(2-((S)-1-((S)-1-palmitoylpyrrolidine-2-carbonyl)pyrrolidine-2-carboxamido)acetamido)propanoic acid] (HELM PEPTIDE1{[CCCCCCCCCCCCCCCC(=O)[*:2]].P.P.G.Y}$$$$V2.0)
- inhibition of the activity of NF-κB induced by LPS, dose dependence (NF-κB; 100 pM, 1 nM): increased as dose of compound 1.1 (SEQ ID NO: 2) increased
- activation of NF-κB induced by LPS (luciferase activity) (NF-κB): inhibited
- activation of BRE induced by BMP6 treatment (BRE (BMP6 signaling)): not inhibited
- formation of inflammatory signaling pathway protein complex mediated by MyD88 or RIP1 [1]: disrupted
- formation of inflammatory signaling pathway complex mediated by MyD88 and RIP1 [2]: further disrupted in an increasing dose dependent manner
- disease activity (disease activity index score) ([3]; oral 50, 100, 200, 400 mg/kg daily for 11 days): decreased as the dose increased
- dose at which the decrease in disease activity was saturated ([3]; oral daily for 11 days): 200 mg/kg
- AP-1-Luc luciferase activity (MAPK signaling pathway) (AP-1): did not suppress MAPK signaling pathways
